Literature values as cited in US7144857B2 (priority 2004, dated 2006).

Tested on: sternal wound infections
Conditions: 416 patients, randomized to topical vancomycin; p=0.02

Structure (SMILES): CN[C@H](CC(C)C)C(=O)N[C@H]1C(=O)N[C@@H](CC(N)=O)C(=O)N[C@H]2C(=O)N[C@H]3C(=O)N[C@H](C(=O)N[C@H](C(=O)O)c4cc(O)cc(O)c4-c4cc3ccc4O)[C@H](O)c3ccc(c(Cl)c3)Oc3cc2cc(c3O[C@@H]2O[C@H](CO)[C@@H](O)[C@H](O)[C@H]2O[C@H]2C[C@](C)(N)[C@H](O)[C@H](C)O2)Oc2ccc(cc2Cl)[C@H]1O [topical vancomycin, vancomycin]
- decrease of the rate of sternal infection: 7 factor
